Results published in US20030232851A1, “Viral treatment” (The Procter & Gamble Company, priority 1999, published 2003).
≈ marks a conversion by molar mass, not a printed value.

Tests used:
[1] = test system: Cryptococcus neoformans; assay: Anti-fungal activity (NCCLS M-27A based), Cryptococcus neoformans; assay type: cell-based
Procedure: It was active against cryptococcus neoformans and curvularai lunata. The cidal activity for the C. neoformans is high enough that it is clear […] against this yeast. This test was conducted using a method based upon NCCLS reference method M-27A published in 1997. Solvent, medium and growth controls were set-up with the tests. Once these were read to validate the test performance, the QC fungi were read to insure they had expected results. These steps validated the test system. DMSO was used as a drug-chemical solvent. […] The 90% cut-off is necessary for azoles, which are static and not cidal. The FMC or cidal level was determined by sub-culturing a sample from each tube showing no growth.

[2] = test system: HIV-2 cell line, CEMROD; assay: Long term in vitro study, CEMROD, reverse transcriptase; assay type: cell-based
Procedure: A microtiter-based reveres transcriptase (RT) reaction is utilized (Buckheit et al (1991) AIDS Research and Human Retroviruses 7:295-302). Tritiated thymidine triphosphate (NEN)(TTP) is resuspended in distilled water at 5 Ci/ml. Poly rA and oligo dT are prepared as a stock solution which is kept at −20° C. The RT reaction buffer is prepared fresh on a daily basis and consists of 125 μl 1M EGTA, 125 μl water, 125 μl Triton X-100, 50 μl Tris (pH 7.4), 50 μl 1 MDDT, and 40 μl 1M MgCl2. These three solutions are mixed together in a ratio of 1 part TTP, 2.5 parts poly rA:oligo dT, 2.5 parts reaction buffer and 4 parts distilled water. Ten microliters of this reaction mixture is placed in a round bottom microtiter place and 15 μl of virus containing supernatant is added and mixed. The plate is incubated at 37° C. for 60 minutes. Following reaction, the reaction volume is spotted onto filter mats, washed 6 times for 5 minutes each in a 5% sodium phosphate buffer, 2 times for 1 minute each in distilled water, 2 times for 1 minute each in 70% ethanol, and then dried. The dried filter mat is placed in a plastic sample bag, Betaplate scintillation fluid is added and the bag is heat sealed. Incorporated radioactivity is quantified utilizing a Wallac Microbeta scintillation counter.
Acute infection of most established human cell lines with HIV-1 results in the eventual establishment of a constitutive virus-producing chronically infected cell line. The cells can be passaged for long periods of time in culture without loss of virus production. These cells may be utilized to evaluate the effects of anti-HIV compounds on syncytium formation or to evaluate the effects of anti-HIV compounds on levels of virus production from these cells. […] Each of the cells contains an integrated HIV genome or provirus. Chronically infected CEM, H9 and U937 cell lines have been prepared and cultured by Southern Research Institute, Frederick Md. and are available from them.
CEM-SS cells chronically infected with HIV isolate, for example SKI (CEM-SKI) are cultured in RPMI1640 tissue culture medium supplemented with 10% fetal bovine serum and antibiotics. […] CEM-SKI or other infected cells with no added drug are used as the control cells. Cells are allowed to grow to a density of approximately 1×10^6 cells/ml and are then passaged at a 1:10 dilution. […] The drug concentration in the flask is then increased two-fold and the cells maintained as above.
The cell populations contain integrated copies of the HIV genome and constitutively produce HIV at relatively high levels or are latently infected and only produce virus after stimulation with phorbol esters, tumor necrosis factor or IL6 (U1 and ACH2). Reductions in virus products were observed when quantifying supernatant reverse transcriptase activity,
A long term in vitro study of 2-(2-thienyl)-imidazolo [4,5-b]pyridine against an HIV-2 cell line, CEMROD was conducted at three different levels. The results with CEMROD cells were reported at weekly intervals.

With `c1csc(-c2nc3cccnc3[nH]2)c1` [2-(2-thienyl)-imidazolo [4,5-b]pyridine] the MFC ([1]; Cryptococcus neoformans, cidal level) was over 32 µg/mL, the MIC ([1]; Cryptococcus neoformans, growth inhibited or reduced at least 90%) was 0.03 µg/mL (≈ 0.149 µM) and the “activity against Cryptococcus neoformans (in words)” value ([1]; in vitro) was “active”. For the same molecule, the reverse transcriptase data ([2]; 7 μg/ml, day 4) was 8506, the reverse transcriptase data ([2]; 7 μg/ml, day 11) was 9471 and the reverse transcriptase data ([2]; 7 μg/ml, day 18) was 6147. For the same molecule, the reverse transcriptase data ([2]; 7 μg/ml, day 25) was 6302, the reverse transcriptase data ([2]; 7 μg/ml, day 32) was 5482 and the reverse transcriptase data ([2]; 7 μg/ml, day 39) was 7253. It also gave a reverse transcriptase data ([2]; 7 μg/ml, day 46) of 4822, a reverse transcriptase data ([2]; 7 μg/ml, day 53) of 7257 and a reverse transcriptase data ([2]; 7 μg/ml, day 60) of 7019. For the same molecule, the reverse transcriptase data ([2]; 7 μg/ml, day 67) was 7215, the reverse transcriptase data ([2]; 7 μg/ml, day 71) was 9052 and the reverse transcriptase data ([2]; 7 μg/ml, day 74) was 6240. For the same molecule, the reverse transcriptase data ([2]; 7 μg/ml, day 88) was 10053, the reverse transcriptase data ([2]; 7 μg/ml, day 95) was 7482 and the reverse transcriptase data ([2]; 7 μg/ml, day 102) was 8023. For the same molecule, the reverse transcriptase data ([2]; 7 μg/ml, day 109) was 13890, the reverse transcriptase data ([2]; 15 μg/ml, day 4) was 7447 and the reverse transcriptase data ([2]; 15 μg/ml, day 11) was 8887. It also gave a reverse transcriptase data ([2]; 15 μg/ml, day 18) of 5399, a reverse transcriptase data ([2]; 15 μg/ml, day 25) of 5040 and a reverse transcriptase data ([2]; 15 μg/ml, day 32) of 4695. It also gave a reverse transcriptase data ([2]; 15 μg/ml, day 39) of 6277, a reverse transcriptase data ([2]; 15 μg/ml, day 46) of 2165 and a reverse transcriptase data ([2]; 15 μg/ml, day 53) of 6546. The reverse transcriptase data ([2]; 15 μg/ml, day 60) was 5940, the reverse transcriptase data ([2]; 15 μg/ml, day 67) was 3215 and the reverse transcriptase data ([2]; 15 μg/ml, day 71) was 7256. For the same molecule, the reverse transcriptase data ([2]; 15 μg/ml, day 74) was 4687, the reverse transcriptase data ([2]; 15 μg/ml, day 88) was 8277 and the reverse transcriptase data ([2]; 15 μg/ml, day 95) was 5116. For the same molecule, the reverse transcriptase data ([2]; 15 μg/ml, day 102) was 6546, the reverse transcriptase data ([2]; 15 μg/ml, day 109) was 10349 and the reverse transcriptase data ([2]; 30 μg/ml, day 4) was 4426. For the same molecule, the reverse transcriptase data ([2]; 30 μg/ml, day 11) was 7092, the reverse transcriptase data ([2]; 30 μg/ml, day 18) was 3322 and the reverse transcriptase data ([2]; 30 μg/ml, day 25) was 3212. For the same molecule, the reverse transcriptase data ([2]; 30 μg/ml, day 32) was 3960, the reverse transcriptase data ([2]; 30 μg/ml, day 39) was 4543 and the reverse transcriptase data ([2]; 30 μg/ml, day 46) was 1245. The reverse transcriptase data ([2]; 30 μg/ml, day 53) was 2402, the reverse transcriptase data ([2]; 30 μg/ml, day 60) was 2410 and the reverse transcriptase data ([2]; 30 μg/ml, day 67) was 1843. It also gave a reverse transcriptase data ([2]; 30 μg/ml, day 71) of 2121, a reverse transcriptase data ([2]; 30 μg/ml, day 74) of 1285 and a reverse transcriptase data ([2]; 30 μg/ml, day 88) of 2543. The reverse transcriptase data ([2]; 30 μg/ml, day 95) was 2245, the reverse transcriptase data ([2]; 30 μg/ml, day 102) was 2402 and the reverse transcriptase data ([2]; 30 μg/ml, day 109) was 1140. For the same molecule, the “reverse transcriptase data on continuation (in words)” value ([2]; run through 242 days) was “data remained consistent”.
